The values below come from patent publication EP0418591B1 (priority 1989, dated 1991).

In test [1] the target is T1, Delta opiate binding sites (Rattus norvegicus, UniProt P33533).
T1 construct: from tissue; host or cells: rat brain minus cerebellum, twice-washed P2 membrane fraction
Set-up: species or system Sprague-Dawley rats.

Another test deals with T2, Mu opiate binding sites (Rattus norvegicus, UniProt P33535).
T2 construct: from tissue; host or cells: rat brain minus cerebellum, twice-washed P2 membrane fraction
Further details: species or system Sprague-Dawley rats.

The next test deals with Cough in Guinea Pigs. Set-up: species or system Dunkin Hartley guinea pigs. The settings on record: guinea pig, in vivo.

Where two headings read alike, the source gives them in different places. Marks after values point to notes of the source that are not given here.

T2 sequence (P33535 whole entry): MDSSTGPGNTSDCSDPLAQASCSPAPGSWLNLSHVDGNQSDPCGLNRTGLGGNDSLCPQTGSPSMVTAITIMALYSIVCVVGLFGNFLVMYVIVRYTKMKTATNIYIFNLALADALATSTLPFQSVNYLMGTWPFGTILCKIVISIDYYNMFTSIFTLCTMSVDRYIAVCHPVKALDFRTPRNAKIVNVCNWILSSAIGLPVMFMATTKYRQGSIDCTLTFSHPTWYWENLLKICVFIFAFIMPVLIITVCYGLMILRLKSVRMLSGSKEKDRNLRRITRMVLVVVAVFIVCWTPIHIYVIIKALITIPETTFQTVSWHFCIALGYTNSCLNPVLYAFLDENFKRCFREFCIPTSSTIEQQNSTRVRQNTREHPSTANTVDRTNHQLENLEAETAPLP
T1 sequence (P33533 whole entry): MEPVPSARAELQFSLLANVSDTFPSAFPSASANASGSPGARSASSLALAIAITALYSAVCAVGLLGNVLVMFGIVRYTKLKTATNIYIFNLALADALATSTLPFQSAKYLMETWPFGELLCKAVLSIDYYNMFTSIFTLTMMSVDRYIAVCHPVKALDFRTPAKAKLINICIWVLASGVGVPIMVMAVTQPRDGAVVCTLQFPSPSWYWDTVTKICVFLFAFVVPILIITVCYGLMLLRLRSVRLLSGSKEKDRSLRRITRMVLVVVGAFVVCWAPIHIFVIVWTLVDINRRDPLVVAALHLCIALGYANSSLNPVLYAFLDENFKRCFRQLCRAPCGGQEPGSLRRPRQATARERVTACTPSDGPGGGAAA

On to `CC(C)C[C@H](NC(=O)[C@H](Cc1ccccc1)NC(=O)CNC(=O)[C@H](NC(=O)[C@@H](N)Cc1ccc(O)cc1)[C@H](C)O)C(=O)N[C@H](C(=O)O)[C@@H](C)O` [DTLET, D-Thr²-Leu-Enkephalin-Thr], for which the IC50 was found to be 2.7 nM in test [1] (read-out: IC₅₀ Delta) and 184 nM on Mu opiate binding sites (read-out: IC₅₀ Mu). The Ki is 1.2 nM in test [1] (read-out: Ki Delta) and 105 nM on Mu opiate binding sites (read-out: Ki Mu).
For `COc1ccc2c3c1O[C@H]1[C@@H](O)C=C[C@H]4[C@@H](C2)N(C)CC[C@@]341` [(-)-codeine], in the test on Cough in Guinea Pigs, the inhibition of cough stood at 46%. Besides, in the test on Cough in Guinea Pigs (po), the “% Inhibition of Coughing 5 min” value is reported as 42.7*** % and the “% Inhibition of Coughing 10 min” value is given as 38.7*** %. Besides, in the test with Cough in Guinea Pigs (sc), the “% Inhibition of Coughing 5 min” value was 46.2*** % and the “% Inhibition of Coughing 10 min” value is listed as 46.1*** %.
